Results from patent US11090292B2, “Compositions and methods of use of an inappetance-controlling compound” (Aratana Therapeutics, Inc., priority 2012, dated 2021).

Legend:
[1] = Example 12: food consumption; type: in vivo, cats; conditions: IV 0.75 mg/kg or oral 3 mg/kg, short treatment
Procedure: Similar to some of the other pharmacokinetic analyses conducted in dogs and cats, an additional pharmacokinetic study was conducted in cats to assess capromorelin formulations that allow sufficient drug to circulate to produce appetite stimulation and to define the capromorelin pharmacokinetic profile in cats. Briefly, twelve cats were randomized into Group 1 (six cats) and Group 2 (six cats). Group 1 received an intravenous formulation that included 0.75 mg/kg of capromorelin dissolved in sterile water and Group 2 received a previously tested formulation via oral gavage. Food consumption was determined daily for all cats. Specifically, animals were offered feed at approximately 11:00 AM, with the removal of feed at approximately 3:00 PM. Upon removal of feed, the amount consumed was calculated.

growth hormone (GH) = test: Example 1: serum GH concentration; type: in vivo, Beagle dogs; conditions: once-daily 6 mg/kg or twice-daily 3 mg/kg, approximately 0.5 h after dosing, days 1, 2, 4, 7
Procedure: A controlled, seven-day study was performed to assess the impact of different capromorelin-dosing regimens on the production of insulin-like growth factor 1 (hereinafter “IGF-1”), growth hormone (hereinafter “GH”), and cortisol. The different capromorelin-dosing regimens were also assessed for the impact on food intake and changes in body mass.
Eighteen adult non-naïve Beagle dogs (nine males and nine females) were divided into one of three treatment groups. Each of the three treatment groups included three males and three females. Group A, which was the control group, was dosed twice per day, via oral gavage, with a vehicle (deionized water alone) and was used as a baseline data point for comparison against the active treatment regimens. Group B comprised an active treatment group that received two treatments per day, via oral gavage, with a capromorelin-containing composition with a concentration of 3 mg/kg capromorelin per treatment. Finally, Group C comprised an active treatment group that received one treatment per day, via oral gavage, with a capromorelin-containing composition with a concentration of 6 mg/kg capromorelin per treatment.
During the ten day study period, on an at least once-daily basis, each of the dogs was monitored for clinical observations, mortality, morbidity, body mass, and food consumption. […]

IGF-1 = test: Example 13: serum IGF-1; type: in vivo, cats with compromised kidney function; conditions: 8 hours post administration; Group 1 IV Day 0, Group 2 SC Days 0 and 13
Procedure: The following study was undertaken to assess multiple points. First, the following experiments were conducted to determine if a formulation of capromorelin, when administered either intravenously or subcutaneously, can stimulate appetite in cats with compromised kidney function. Second, the following experiments were conducted to assess the pharmacokinetic profile of capromorelin in the serum of cats with compromised kidney function. Finally, the following experiments were conducted to determine if capromorelin accumulates in the serum after 14 days of treatment that is subcutaneously administered.
Sixteen cats with compromised kidney function were acclimatized for the following study. Animals assigned to Group 1 (n=6) received an intravenous administration of a capromorelin formulation (i.e., capromorelin in sterile water) at a dose of 0.75 mg/kg on Day 0 of the experiment. Animals assigned to Group 2 (n=6) received a subcutaneous administration of a capromorelin formulation (2.1% w/v capromorelin, 1% w/v benzyl alcohol, and citrate buffer) daily for 14 days at a dose of 2 mg/kg. Animals assigned to Group 3 (n=4) served as untreated controls. […] Diet consumption was also monitored on study days −7 until day 13 for the animals in Groups 2 and 3 only.

[2] = Example 13: serum capromorelin and pharmacokinetics; type: in vivo, cats with compromised kidney function
Procedure: The following study was undertaken to assess multiple points. First, the following experiments were conducted to determine if a formulation of capromorelin, when administered either intravenously or subcutaneously, can stimulate appetite in cats with compromised kidney function. Second, the following experiments were conducted to assess the pharmacokinetic profile of capromorelin in the serum of cats with compromised kidney function. Finally, the following experiments were conducted to determine if capromorelin accumulates in the serum after 14 days of treatment that is subcutaneously administered. Sixteen cats with compromised kidney function were acclimatized for the following study. Animals assigned to Group 1 (n=6) received an intravenous administration of a capromorelin formulation (i.e., capromorelin in sterile water) at a dose of 0.75 mg/kg on Day 0 of the experiment. Animals assigned to Group 2 (n=6) received a subcutaneous administration of a capromorelin formulation (2.1% w/v capromorelin, 1% w/v benzyl alcohol, and citrate buffer) daily for 14 days at a dose of 2 mg/kg. Animals assigned to Group 3 (n=4) served as untreated controls. During the study, blood samples were taken from the Group 1 animals at time points 0 (pre-administration), 5 minutes, 10 minutes, 30 minutes, 1 h, 2 h, 4 h, 6 h, 8 h, and 12 h post administration on Day 0. Blood samples were taken from the Group 2 animals at time points 0 (pre-administration), 15 minutes, 30 minutes, 45 minutes, 1 h, 2 h, 4 h, 6 h, 8 h, and 12 h post administration on Day 0 and time points 0, 30 minutes, 1 h, 2 h, 4 h, and 8 h post administration on Day 13. In addition, body weights were collected on study days −7, −1, and 13 (for Groups 2 and 3 only). Diet consumption was also monitored on study days −7 until day 13 for the animals in Groups 2 and 3 only. Referring to FIGS. 116 and 118, the pharmacokinetics of subcutaneously administered capromorelin were also determined. […] In addition, the mean fraction of the dose absorbed was determined by dividing the mean area under the curve (AUC)/dose of the animals in Group 2, which was divided by AUC/dose of the animals in Group 1. In this case, the mean fraction of the dose (F) absorbed is 1.37.

[3] = Group 1, intravenous 0.75 mg/kg, Day 0
[4] = Group 2, subcutaneous 2 mg/kg daily, Day 13
[5] = Group 2, subcutaneous 2 mg/kg, Day 0

For `CN1N=C2CCN(C(=O)[C@@H](COCc3ccccc3)NC(=O)C(C)(C)N)C[C@@]2(Cc2ccccc2)C1=O.O=C(O)C(O)C(O)C(=O)O` [capromorelin], the observed food consumption [1] was “did not reveal any significant increases in food consumption”, the “GH levels in the serum after dosing” value (growth hormone (GH)) was “marked increase” and the “serum concentration of IGF-1 as a result of treatment” value (IGF-1) was “increased in serum concentration of IGF-1”. The “serum concentration of capromorelin at the spike” value [2, 3] was “about 397 ng/mL”, the “time post-administration of initial spike of serum capromorelin” value [2, 3] was “about 5 minutes” and the mean absorption time ([2]; Group 2, subcutaneous 2 mg/kg) was 0.4 h. The “accumulation in the serum after 14 days of treatment” value ([2]; Group 2, subcutaneous 2 mg/kg daily) was “does not accumulate”, the “serum concentration of capromorelin at the spike” value [2, 4] was “about 950 ng/mL” and the “time post administration of spike in serum capromorelin” value [2, 4] was 30 min. The “serum concentration of capromorelin at the spike” value [2, 5] was “about 833 ng/mL”, the “time post-administration of initial spike of serum capromorelin” value [2, 5] was “about 15 minutes” and the Cmax ([2]; cat, serum, sc, Group 2, subcutaneous 2 mg/kg, read-out: geometric Cmax) was 893 ng/mL. For the same compound, the clearance ([2]; cat, serum, Group 1, intravenous 0.75 mg/kg, several of the test animals) was 20 mL/min/kg, the half-life ([2]; cat, serum, Group 1, intravenous 0.75 mg/kg, read-out: terminal half-life) was 40.2 to 54 min and the “mean fraction of the dose (F) absorbed” value ([2]; subcutaneous AUC/dose (Group 2) divided by intravenous AUC/dose (Group 1)) was 1.37.
